From patent publication US10562887B2, “Triazolones and tetrazolones as inhibitors of ROCK” (BRISTOL-MYERS SQUIBB COMPANY, priority 2016, dated 2020)

molecular target: ROCK2 (Homo sapiens (Human), UniProt O75116); test: ROCK2 assay (peptide phosphorylation, LABCHIP 3000 Reader); assay type: biochemical; conditions: 5 μM ATP, 1.5 μM peptide substrate
Procedure, shortened: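 Human ROCK2 reaction in 20 mM HEPES pH 7.5, 20 mM MgCl2, 0.015% Brij-35, 4 mM DTT, with 5 μM ATP and 1.5 μM FITC-labelled peptide, DMSO <2%. Stopped with EDTA; phosphorylated and unphosphorylated peptide separated by microfluidic mobility shift. IC50 from dose-response curve fit.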

Chain of ROCK2 (O75116 whole entry, species assumed): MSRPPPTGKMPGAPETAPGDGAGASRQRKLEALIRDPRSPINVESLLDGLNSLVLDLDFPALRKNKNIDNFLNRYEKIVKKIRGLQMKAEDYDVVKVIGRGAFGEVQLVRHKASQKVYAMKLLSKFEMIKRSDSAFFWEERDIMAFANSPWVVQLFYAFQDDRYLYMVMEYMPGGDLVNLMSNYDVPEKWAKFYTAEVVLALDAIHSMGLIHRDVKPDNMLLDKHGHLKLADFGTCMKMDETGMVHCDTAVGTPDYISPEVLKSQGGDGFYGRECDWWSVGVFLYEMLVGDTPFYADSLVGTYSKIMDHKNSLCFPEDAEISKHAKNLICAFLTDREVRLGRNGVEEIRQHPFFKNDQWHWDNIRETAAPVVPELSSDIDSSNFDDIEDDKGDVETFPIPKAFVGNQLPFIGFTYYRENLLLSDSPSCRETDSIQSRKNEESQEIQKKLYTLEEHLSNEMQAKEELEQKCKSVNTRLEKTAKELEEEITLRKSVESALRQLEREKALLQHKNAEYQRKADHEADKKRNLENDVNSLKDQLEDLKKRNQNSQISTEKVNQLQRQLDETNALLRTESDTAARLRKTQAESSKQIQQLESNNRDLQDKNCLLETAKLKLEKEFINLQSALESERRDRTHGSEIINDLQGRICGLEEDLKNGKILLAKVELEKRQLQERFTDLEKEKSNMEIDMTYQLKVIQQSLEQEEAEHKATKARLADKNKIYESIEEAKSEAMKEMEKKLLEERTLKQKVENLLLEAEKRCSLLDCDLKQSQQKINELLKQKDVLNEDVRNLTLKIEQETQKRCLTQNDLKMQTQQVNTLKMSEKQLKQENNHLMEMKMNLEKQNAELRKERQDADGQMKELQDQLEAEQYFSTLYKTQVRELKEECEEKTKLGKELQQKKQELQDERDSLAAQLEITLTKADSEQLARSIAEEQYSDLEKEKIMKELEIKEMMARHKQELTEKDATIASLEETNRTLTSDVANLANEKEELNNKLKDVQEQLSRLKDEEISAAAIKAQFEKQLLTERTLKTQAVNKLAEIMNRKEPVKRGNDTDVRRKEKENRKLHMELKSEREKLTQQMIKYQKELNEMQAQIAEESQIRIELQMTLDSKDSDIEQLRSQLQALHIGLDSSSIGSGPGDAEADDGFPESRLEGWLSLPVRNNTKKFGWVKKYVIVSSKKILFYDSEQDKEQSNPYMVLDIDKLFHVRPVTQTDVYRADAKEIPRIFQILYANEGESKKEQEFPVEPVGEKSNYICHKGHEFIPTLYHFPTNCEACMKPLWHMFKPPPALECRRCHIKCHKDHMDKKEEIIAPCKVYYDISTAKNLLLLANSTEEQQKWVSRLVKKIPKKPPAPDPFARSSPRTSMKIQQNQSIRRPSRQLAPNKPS

Row | Compound | IC50 [nM]
1 | COc1cccc(Cn2c(CN(C)C)nn(-c3ccc(-c4cn[nH]c4)cc3)c2=O)c1 [Example 142, 1-(4-(1H-pyrazol-4-yl)phenyl)-3-((dimethylamino)methyl)-4-(3-methoxybenzyl)-1H-1,2,4-triazol-5(4H)-one] | 5 to 50
2 | COc1cc(F)cc(Cn2c(CO)nn(-c3ccc(-c4cn[nH]c4)cc3)c2=O)c1 [Example 144, 1-(4-(1H-pyrazol-4-yl)phenyl)-4-(3-fluoro-5-methoxybenzyl)-3-(hydroxymethyl)-1H-1,2,4-triazol-5(4H)-one] | < 5
3 | COc1cccc(Cn2c(CN3CCCC3)nn(-c3ccc(-c4cn[nH]c4)cc3)c2=O)c1 [Example 146, 1-(4-(1H-pyrazol-4-yl)phenyl)-4-(3-methoxybenzyl)-3-(pyrrolidin-1-ylmethyl)-1H-1,2,4-triazol-5(4H)-one] | 5 to 50
4 | COc1cc(F)cc(Cn2c(CN3CCOCC3)nn(-c3ccc(-c4cn[nH]c4)cc3)c2=O)c1 [Example 149, 1-(4-(1H-pyrazol-4-yl)phenyl)-4-(3-fluoro-5-methoxybenzyl)-3-(morpholinomethyl)-1H-1,2,4-triazol-5(4H)-one] | 5 to 50
5 | COc1cc(F)cc(Cn2c(CN3CCCC3)nn(-c3ccc(-c4cn[nH]c4)cc3)c2=O)c1 [Example 150, 1-(4-(1H-pyrazol-4-yl)phenyl)-4-(3-fluoro-5-methoxybenzyl)-3-(pyrrolidin-1-ylmethyl)-1H-1,2,4-triazol-5(4H)-one] | 5 to 50
6 | COc1cc(F)cc(Cn2c(CNCCO)nn(-c3ccc(-c4cn[nH]c4)cc3)c2=O)c1 [Example 151, 1-(4-(1H-pyrazol-4-yl)phenyl)-4-(3-fluoro-5-methoxybenzyl)-3-(((2-hydroxyethyl)amino)methyl)-1H-1,2,4-triazol-5(4H)-one] | 5 to 50
7 | COc1cc(F)cc(Cn2c(CN3CCNCC3)nn(-c3ccc(-c4cn[nH]c4)cc3)c2=O)c1 [Example 152, 1-(4-(1H-pyrazol-4-yl)phenyl)-4-(3-fluoro-5-methoxybenzyl)-3-(piperazin-1-ylmethyl)-1H-1,2,4-triazol-5(4H)-one] | 5 to 50
8 | COc1cc(F)cc(Cn2c(CN3CCC(O)C3)nn(-c3ccc(-c4cn[nH]c4)cc3)c2=O)c1 (centres unmarked) [Example 155, 1-(4-(1H-pyrazol-4-yl)phenyl)-4-(3-fluoro-5-methoxybenzyl)-3-((3-hydroxypyrrolidin-1-yl)methyl)-1H-1,2,4-triazol-5(4H)-one] | 5 to 50
9 | COc1cccc(Cn2c(CN3CCC(O)C3)nn(-c3ccc(-c4cn[nH]c4)cc3)c2=O)c1 (centres unmarked) [Example 156, 1-(4-(1H-pyrazol-4-yl)phenyl)-3-((3-hydroxypyrrolidin-1-yl)methyl)-4-(3-methoxybenzyl)-1H-1,2,4-triazol-5(4H)-one] | 5 to 50
10 | COc1ccc(F)cc1Cn1c(CO)nn(-c2ccc(-c3cn[nH]c3)cc2)c1=O [Example 157, 1-(4-(1H-pyrazol-4-yl)phenyl)-4-(5-fluoro-2-methoxybenzyl)-3-(hydroxymethyl)-1H-1,2,4-triazol-5(4H)-one] | 50 to 250
11 | COc1cccc(Cn2c(CO)nn(-c3ccc(-c4cn[nH]c4)cc3)c2=O)c1F [Example 160, 1-(4-(1H-pyrazol-4-yl)phenyl)-4-(2-fluoro-3-methoxybenzyl)-3-(hydroxymethyl)-1H-1,2,4-triazol-5(4H)-one] | 250 to 2000
12 | COc1cccc(Cn2c(C)nn(-c3ccc(-c4ccnc(N)c4)cc3)c2=O)c1 [Example 161, 1-(4-(2-aminopyridin-4-yl)phenyl)-4-(3-methoxybenzyl)-3-methyl-1H-1,2,4-triazol-5(4H)-one] | 50 to 250
13 | COc1cccc(Cn2cnn(-c3ccc(-c4ccnc(N)c4)cc3)c2=O)c1 [Example 162, 1-(4-(2-aminopyridin-4-yl)phenyl)-4-(3-methoxybenzyl)-1H-1,2,4-triazol-5(4H)-one] | 5 to 50
14 | COc1cccc(Cn2c(C)nn(-c3ccc(-c4ccnc5[nH]ccc45)cc3)c2=O)c1 [Example 165, 1-(4-(1H-pyrrolo[2,3-b]pyridin-4-yl)phenyl)-4-(3-methoxybenzyl)-3-methyl-1H-1,2,4-triazol-5(4H)-one] | 5 to 50
15 | COc1cccc(Cn2cnn(-c3ccc(-c4ccnc5[nH]ccc45)cc3)c2=O)c1 [Example 169, 1-(4-(1H-pyrrolo[2,3-b]pyridin-4-yl)phenyl)-4-(3-methoxybenzyl)-1H-1,2,4-triazol-5(4H)-one] | < 5
16 | COc1cccc(Cn2nnn(-c3ccc(-c4cn[nH]c4)cc3)c2=O)c1 [Example 172, 1-(4-(1H-pyrazol-4-yl)phenyl)-4-(3-methoxybenzyl)-1H-tetrazol-5(4H)-one] | 5 to 50

Other lines, results leading:

Row | IC50 [nM] | Compound
17 | 5 to 50 | COc1cccc(Cn2c(CN3CCOCC3)nn(-c3ccc(-c4cn[nH]c4)cc3)c2=O)c1 [Example 143, 1-(4-(1H-pyrazol-4-yl)phenyl)-4-(3-methoxybenzyl)-3-(morpholinomethyl)-1H-1,2,4-triazol-5(4H)-one]
18 | 5 to 50 | COc1cc(F)cc(Cn2c(C(C)(C)O)nn(-c3ccc(-c4cn[nH]c4)cc3)c2=O)c1 [Example 145, 1-(4-(1H-pyrazol-4-yl)phenyl)-4-(3-fluoro-5-methoxybenzyl)-3-(2-hydroxypropan-2-yl)-1H-1,2,4-triazol-5(4H)-one]
19 | 5 to 50 | COc1cc(F)cc(Cn2c(CN(C)C)nn(-c3ccc(-c4cn[nH]c4)cc3)c2=O)c1 [Example 148, 1-(4-(1H-pyrazol-4-yl)phenyl)-3-((dimethylamino)methyl)-4-(3-fluoro-5-methoxybenzyl)-1H-1,2,4-triazol-5(4H)-one]
20 | 5 to 50 | COc1cc(F)cc(Cn2c(CNC(C)CO)nn(-c3ccc(-c4cn[nH]c4)cc3)c2=O)c1 (centres unmarked) [Example 153, 1-(4-(1H-pyrazol-4-yl)phenyl)-4-(3-fluoro-5-methoxybenzyl)-3-(((1-hydroxypropan-2-yl)amino)methyl)-1H-1,2,4-triazol-5(4H)-one]
21 | 5 to 50 | COc1cc(Cn2c(CO)nn(-c3ccc(-c4cn[nH]c4)cc3)c2=O)ccc1F [Example 158, 1-(4-(1H-pyrazol-4-yl)phenyl)-4-(4-fluoro-3-methoxybenzyl)-3-(hydroxymethyl)-1H-1,2,4-triazol-5(4H)-one]
22 | 250 to 2000 | COc1ccc(Cn2c(CO)nn(-c3ccc(-c4cn[nH]c4)cc3)c2=O)cc1F [Example 159, 1-(4-(1H-pyrazol-4-yl)phenyl)-4-(3-fluoro-4-methoxybenzyl)-3-(hydroxymethyl)-1H-1,2,4-triazol-5(4H)-one]
23 | 50 to 250 | COc1cccc(Cn2cnn(-c3ccc(-c4ncnc5[nH]ccc45)cc3)c2=O)c1 [Example 163, 1-(4-(7H-pyrrolo[2,3-d]pyrimidin-4-yl)phenyl)-4-(3-methoxybenzyl)-1H-1,2,4-triazol-5(4H)-one]
24 | 250 to 2000 | COc1cccc(Cn2c(C)nn(-c3ccc(-c4ncnc5[nH]ccc45)cc3)c2=O)c1 [Example 164, 1-(4-(7H-pyrrolo[2,3-d]pyrimidin-4-yl)phenyl)-4-(3-methoxybenzyl)-3-methyl-1H-1,2,4-triazol-5(4H)-one]
25 | 5 to 50 | COc1cccc(Cn2c(C)nn(-c3ccc(-c4ccnc(N)n4)cc3)c2=O)c1 [Example 166, 1-(4-(2-aminopyrimidin-4-yl)phenyl)-4-(3-methoxybenzyl)-3-methyl-1H-1,2,4-triazol-5(4H)-one]
26 | 5 to 50 | COc1cccc(Cn2cnn(-c3ccc(-c4ccnc(N)n4)cc3)c2=O)c1 [Example 170, 1-(4-(2-aminopyrimidin-4-yl)phenyl)-4-(3-methoxybenzyl)-1H-1,2,4-triazol-5(4H)-one]
